Assays:
[1] = Pharmacokinetic evaluation in rats; assay type: in vivo; conditions: single dose; for absolute absorption rate: compared with hydrogen-substituted reference substance (FIGS. 1 to 4)
Procedure: Pharmacokinetic tests were carried out in rats as follows for the compounds obtained from Examples 1 and 2 above and the compound of Example 2 in which deuterium was substituted with hydrogen (hydrogen-substituted reference substance).
After the test substances were prepared to 2.5 or 5 mg/mL using WFI (water for injection), the rats were administered as a single dose at a prescribed dose (10 mL/kg), and blood was collected at a predetermined time (0, 0.25, 0.5, 1, 2, 4, 6, 8, 10, 24 hours), and then plasma was separated. Analysis of the drug was carried out using HPLC (XBridge column C18, Waters, mobile phase of 0.1% formic acid:acetonitrile (30:70, %/%)) and MS/MS (ESI positive, MRM), and concentrations of 5, 50, 100, 500, 1,000, and 5,000 ng/ml were prepared and measured by mixing rat blank plasma and each commercial standard solution at a ratio of 9:1. In addition, QC sample preparations were prepared at concentrations of 100, 750, and 2,500 ng/ml by mixing rat blank plasma and QC standard solution in a 9:1 ratio. As for the pretreatment method, 100 μl of the plasma sample was transferred to a centrifuge tube, and 10 μl of the internal standard solution and 300 μl of methanol were added thereto, and then mixed for about 30 seconds. The tube was centrifuged for about 5 minutes at a rotation speed of 12,000 rpm (4° C.) using a centrifuge, and the supernatant was taken, transferred to an LC vial and then injected into the device. Thereafter, the concentration of the drug in rat plasma was quantified by applying the previously verified assay. For pharmacokinetic parameters, WinNonlin 5.2 (Pharsight, USA) program was used, and AUC0-t, AUC0-∞, Cmax, Tmax, and t1/2 were calculated by noncompartment modeling (best fit). Pharmacokinetic parameter results were expressed as mean and standard deviation (SD), and statistically processed using the SPSS program (Statistical Package for the Social Sciences, 10.0K, USA).

BaF3 (de119/T790M/C797S) = test: Measurement of inhibitory effect on cancer cell growth (GI50); assay type: cell-based; conditions: for GI50: Mus musculus, concentration to inhibit 50% of cell growth, BaF3 cells with EGFR de119/T790M/C797S; for activity against cancer cell lines expressing the C797S mutant epidermal growth factor receptor: summary in words of Table 1

Row | GI50 (BaF3 (de119/T790M/C797S)) [nM] | relative absorption rate compared to the hydrogen-substituted reference substance [1] [%] | Compound | absolute absorption rate [1] | activity against cancer cell lines expressing the C797S mutant epidermal growth factor receptor (BaF3 (de119/T790M/C797S))
1 | ≤ 500 |  | [2H]C([2H])([2H])N1CCN(C2CCN(c3ccc(Nc4ncc(Cl)c(Nc5ccccc5N(C)S(C)(=O)=O)n4)c(OC)c3)CC2)CC1 [Example 1, N-(2-((5-Chloro-2-((2-Methoxy-4-(4-(4-(Methyl-d3)Piperazin-1-Yl)Piperidin-1-Yl)Phenyl)Amino)Pyrimidin-4-Yl)Amino)Phenyl)-N-Methylmethanesulfonamide] | equivalent to or greater than the control drug | excellent activity
2 | ≤ 500 | 111.4 | [2H]C([2H])([2H])N(c1ccccc1Nc1nc(Nc2ccc(N3CCC(N4CCN(C)CC4)CC3)cc2OC)ncc1Cl)S(C)(=O)=O [Example 2] | equivalent to or greater than the control drug | excellent activity
3 | > 1000 |  | C=CC(=O)Nc1cc(Nc2nccc(-c3cn(C)c4ccccc34)n2)c(OC)cc1N(C)CCN(C)C [Osimertinib, osimertinib, reference compound] |  | poor activity

Source: patent US20230114177A1, “NOVEL DEUTERIUM-SUBSTITUTED PYRIMIDINE DERIVATIVE AND PHARMACEUTICAL COMPOSITION COMPRISING SAME” (ONCOBIX CO., LTD., priority 2019, published 2023)
